Results taken from US5502035A, “N-terminus modified analogs of LHRH” (Tap Holdings Inc., priority 1994, dated 1996).
Non-standard residues stand in square brackets, D forms with d. Residues, ends and D or L forms follow the SMILES beside them. Groups on a side chain read outwards from the residue. *: point of attachment. Shikimoyl = O=C(C1=C[C@@H](O)[C@@H](O)[C@H](O)C1)*; X4 = O=C([C@@H](O)[C@@H](O)[C@H](O)[C@@H](O)CO)*; dPhe(4-Cl) = N[C@H](Cc1ccc(Cl)cc1)C(=O)O; d2Nal = N[C@H](Cc1ccc2ccccc2c1)C(=O)O; NMeY = CN[C@@H](Cc1ccc(O)cc1)C(=O)O; d3Pal = N[C@H](Cc1cccnc1)C(=O)O; NMeL = CN[C@@H](CC(C)C)C(=O)O; Nicotinoyl = O=C(c1cccnc1)*

Target: T1, LHRH (Rattus norvegicus, UniProt P30969)
T1 construct: endogenous in cells; host or cells: rat pituitary cells (own knowledge of the cited Haviv 1989 method)
T1 sequence (P30969 1-327): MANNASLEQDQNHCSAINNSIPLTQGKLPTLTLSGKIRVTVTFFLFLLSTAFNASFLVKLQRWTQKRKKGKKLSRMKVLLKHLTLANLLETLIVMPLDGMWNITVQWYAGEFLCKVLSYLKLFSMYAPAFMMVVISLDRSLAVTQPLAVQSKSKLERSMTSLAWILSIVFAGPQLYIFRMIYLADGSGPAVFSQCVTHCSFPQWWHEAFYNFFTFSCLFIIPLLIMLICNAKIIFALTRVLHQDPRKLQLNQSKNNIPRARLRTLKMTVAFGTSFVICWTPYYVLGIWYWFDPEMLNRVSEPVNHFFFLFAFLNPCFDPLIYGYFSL
Assay: in vitro test for LHRH antagonist potency (pA2)
Type: cell-based
Settings: negative logarithm of the antagonist concentration required to shift the response curve produced by the agonist leuprolide to two-fold higher concentration
How it was run: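 Antagonism read against the agonist leuprolide on rat LHRH receptor; value is pA2, the −log of antagonist concentration that doubles the agonist concentration needed for the same response.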

Structure (SMILES) | Kb
CC(C)C[C@H](NC(=O)[C@@H](CCCCNC(=O)CNC(=O)CNC(=O)c1cccnc1)NC(=O)[C@H](Cc1ccc(O)cc1)N(C)C(=O)[C@H](CO)NC(=O)[C@@H](Cc1cccnc1)NC(=O)[C@@H](Cc1ccc(Cl)cc1)NC(=O)[C@@H](Cc1ccc2ccccc2c1)NC(=O)CNC(=O)C1=C[C@@H](O)[C@@H](O)[C@H](O)C1)C(=O)N[C@@H](CCCNC(=N)N)C(=O)N1CCC[C@H]1C(=O)N[C@H](C)C(N)=O [Example 20, N-Shikimyl-Gly-D2Nal-D4ClPhe-D3Pal-Ser-NMeTyr-DLys(GlyGlyNic)-Leu-Arg-Pro-DAlaNH2] (Shikimoyl-G[d2Nal][dPhe(4-Cl)][d3Pal]S[NMeY][dK]([Gly-Gly-Nicotinoyl])LRP[dA]-NH2) | 0.0263 nM
CC(C)C[C@H](NC(=O)[C@@H](CCCCNC(=O)CNC(=O)[C@@H](O)[C@@H](O)[C@H](O)[C@@H](O)CO)NC(=O)[C@H](Cc1ccc(O)cc1)N(C)C(=O)[C@H](CO)NC(=O)[C@@H](Cc1cccnc1)NC(=O)[C@@H](Cc1ccc(Cl)cc1)NC(=O)[C@@H](Cc1ccc2ccccc2c1)NC(=O)CNC(=O)[C@@H](O)[C@@H](O)[C@H](O)[C@@H](O)CO)C(=O)N[C@@H](CCCNC(=N)N)C(=O)N1CCC[C@H]1C(=O)N[C@H](C)C(N)=O [Example 21, N-(L-Gulonyl)-Gly-D2Nal-D4ClPhe-D3Pal-Ser-NMeTyr-DLys(Gly-L-Gulonyl)-Leu-Arg-Pro-DAlaNH2] (X4-G[d2Nal][dPhe(4-Cl)][d3Pal]S[NMeY][dK]([Gly-X4])LRP[dA]-NH2) | 0.0316 nM
CC(C)C[C@H](NC(=O)[C@@H](CCCCNC(=O)CNC(=O)C1=C[C@@H](O)[C@@H](O)[C@H](O)C1)NC(=O)[C@H](Cc1ccc(O)cc1)N(C)C(=O)[C@H](CO)NC(=O)[C@@H](Cc1cccnc1)NC(=O)[C@@H](Cc1ccc(Cl)cc1)NC(=O)[C@@H](Cc1ccc2ccccc2c1)NC(=O)CNC(=O)c1cccnc1)C(=O)N[C@@H](CCCNC(=N)N)C(=O)N1CCC[C@H]1C(=O)N[C@H](C)C(N)=O [Example 22, N-Nicotinyl-Gly-D2Nal-D4ClPhe-D3Pal-Ser-NMeTyr-DLys(Gly-Shik)-Leu-Arg-Pro-DAlaNH2] (Nicotinoyl-G[d2Nal][dPhe(4-Cl)][d3Pal]S[NMeY][dK]([Gly-Shikimoyl])LRP[dA]-NH2) | 0.00339 nM
CC[C@H](C)[C@H](NC(=O)[C@@H](CCCCNC(=O)C1=C[C@@H](O)[C@@H](O)[C@H](O)C1)NC(=O)[C@H](Cc1ccc(O)cc1)N(C)C(=O)[C@H](CO)NC(=O)[C@@H](Cc1cccnc1)NC(=O)[C@@H](Cc1ccc(Cl)cc1)NC(=O)[C@@H](Cc1ccc2ccccc2c1)NC(=O)CNC(=O)c1cccnc1)C(=O)N[C@@H](CCCNC(=N)N)C(=O)N1CCC[C@H]1C(=O)N[C@H](C)C(N)=O [Example 23a, N-Nicotinyl-Gly-D2Nal-D4ClPhe-D3Pal-Ser-NMeTyr-DLys(Shik)-Ile-Arg-Pro-DAlaNH2] (Nicotinoyl-G[d2Nal][dPhe(4-Cl)][d3Pal]S[NMeY][dK](Shikimoyl)IRP[dA]-NH2) | 0.0195 nM
CC(C)C[C@@H](C(=O)N[C@@H](CCCNC(=N)N)C(=O)N1CCC[C@H]1C(=O)N[C@H](C)C(N)=O)N(C)C(=O)[C@@H](CCCCNC(=O)C1=C[C@@H](O)[C@@H](O)[C@H](O)C1)NC(=O)[C@H](Cc1ccc(O)cc1)N(C)C(=O)[C@H](CO)NC(=O)[C@@H](Cc1cccnc1)NC(=O)[C@@H](Cc1ccc(Cl)cc1)NC(=O)[C@@H](Cc1ccc2ccccc2c1)NC(=O)CNC(=O)c1cccnc1 [Example 23b, N-Nicotinyl-Gly-D2Nal-D4ClPhe-D3Pal-Ser-NMeTyr-DLys(Shikimyl)-NMeLeu-Arg-Pro-DAlaNH2] (Nicotinoyl-G[d2Nal][dPhe(4-Cl)][d3Pal]S[NMeY][dK](Shikimoyl)[NMeL]RP[dA]-NH2) | 0.0186 nM
